According to patent US9346818B2 (priority 2012, dated 2016):
Entries after “also recorded” stand apart in the source; their conditions may differ. Counter-ions that a name gives are not always drawn. Like-named read-outs stand apart in the source and are kept apart here.

What was measured:
[1] = target: acetylcholinesterase (Homo sapiens (Human), UniProt P22303); experiment: biochemical; format: biochemical; settings: for potency on acetylcholinesterase compared with positive control drug donepezil hydrochloride: in vitro, enzymology level
acetylcholinesterase, sequence (P22303 32-614, species assumed): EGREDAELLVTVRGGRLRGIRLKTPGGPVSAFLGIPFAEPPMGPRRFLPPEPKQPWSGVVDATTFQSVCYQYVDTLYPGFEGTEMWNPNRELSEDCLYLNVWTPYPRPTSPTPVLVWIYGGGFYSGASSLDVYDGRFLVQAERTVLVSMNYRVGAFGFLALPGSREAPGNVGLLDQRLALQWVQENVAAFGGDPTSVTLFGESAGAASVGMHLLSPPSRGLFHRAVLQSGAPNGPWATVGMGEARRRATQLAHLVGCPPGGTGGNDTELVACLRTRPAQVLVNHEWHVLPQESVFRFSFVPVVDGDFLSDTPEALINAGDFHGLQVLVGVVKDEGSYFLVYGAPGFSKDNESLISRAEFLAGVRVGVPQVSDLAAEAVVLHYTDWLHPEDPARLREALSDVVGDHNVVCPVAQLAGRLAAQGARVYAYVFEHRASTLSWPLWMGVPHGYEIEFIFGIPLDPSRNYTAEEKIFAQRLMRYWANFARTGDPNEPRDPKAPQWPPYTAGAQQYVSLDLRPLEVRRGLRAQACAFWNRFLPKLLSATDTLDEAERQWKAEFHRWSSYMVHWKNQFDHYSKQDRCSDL

[2] = test system: learning and memory disorder of mice induced by scopolamine; experiment: Morris water maze test, senile dementia mice model induced by scopolamine; format: in vivo; settings: for effect on learning and memory disorder of mice induced by scopolamine: Morris water maze, in comparison with model group / donepezil hydrochloride group; for latent period day 1 / latent period day 2 / latent period day 3 / latent period day 4 / latent period day 5 / times of crossing platform: scopolamine 1 mg/kg
[3] = test system: learning and memory disorder induced by intracerebroventricular injection of Aβ1-42; experiment: Morris water maze test, rats with intracerebroventricular injection of Aβ1-42; format: in vivo; settings: Aβ1-42 rats
Description: The model of learning and memory disorder induced after intracerebroventricular injection of Aβ1-42 is the most common animal model for evaluating whether a compound has the effect of improving the learning and memory. […] Morris water maze test and the model of learning and memory disorder induced by intracerebroventricular injection of Aβ1-42 were employed in the present research, and the improvement effects of I-33 on learning and memory of rats at various concentration (0.7 mg/Kg, 3.5 mg/Kg, and 7 mg/Kg) were evaluated.
SD, male (220±20 g), the animals were fed in light: dark cycle (12 h/12 h) in a cleaning level of animal room, ad lib. The tests were performed after 3 days acclimation in the animal room. Aβ1-42 was formulated to 2 μg/μl according to the instruction of specification.
(1) Normal group: intracerebroventricular injection of physiological saline
(2) Model group with intracerebroventricular injection of Aβ1-42: intracerebroventricular injection of Aβ1-42
(4) I-33 (low concentration group): I-33 (0.7 mg/Kg)+intracerebroventricular injection of Aβ1-42
(5) I-33 (medium concentration group): I-33 (3.5 mg/Kg)+intracerebroventricular injection of Aβ1-42
(6) I-33 (high concentration group): I-33 (7 mg/Kg)+intracerebroventricular injection of Aβ1-42
Each rat in normal control group received intracerebroventricular injection of 5 μl of physiological saline, each rat in the other groups received intracerebroventricular injection of 5 μl of Aβ1-42. After the operation, the rats received the following tests after 1 week recovery period. […] The drugs were administered for 8 days, the training for water maze test was started on the 5th day, and the water maze test was formally started on the 9th day.

[4] = IC50 (nM), inhibition activity on acetylcholinesterase, modified Ellman method
[5] = modified Ellman method, read-out: IC50 (nM), inhibition activity on acetylcholinesterase
[6] = DPH 3 mg/Kg, I-33 all dosages tested
[7] = read-out: IC50 (nM), inhibition activity on acetylcholinesterase

Structure (SMILES): O=C1c2cc3c(cc2C2(CC2)N1CCC1CCN(Cc2ccccc2)CC1)OCO3 [Compound I-17, 6-[2-(1-benzyl-4-piperidyl)ethyl]spiro[[1,3]dioxolo[4,5-f]isoindole-7,1′-cyclopropane]-5-one]
- IC50 [1, 4]: 202 nM
- potency on acetylcholinesterase compared with positive control drug donepezil hydrochloride [1]: slightly lower potency than the positive control drug; also recorded: comparable inhibition activity on acetylcholinesterase with donepezil hydrochloride
- effect on learning and memory disorder of mice induced by scopolamine [2]: superior to the donepezil hydrochloride group; also recorded: had the effect of improving the learning and memory disorder of mice induced by scopolamine; also recorded: stronger effects of improving learning and memory
- latent period day 1 ([2]; Table 2, 5 mg/kg intragastric): 56.8 ± 8.6 s
- latent period day 2 ([2]; Table 2, 5 mg/kg intragastric): 60 ± 0 s
- latent period day 3 ([2]; Table 2, 5 mg/kg intragastric): 48.7 ± 15.7 s
- latent period day 4 ([2]; Table 2, 5 mg/kg intragastric): 56.7 ± 8.1 s
- latent period day 5 ([2]; Table 2, 5 mg/kg intragastric): 47.2 ± 13.4 s
- times of crossing platform ([2]; Table 2, 5 mg/kg intragastric): 1.8 ± 2.5
- latent period day 1 ([2]; Table 6, 5 mg/kg intragastric): 57.3 ± 6.7 s
- latent period day 2 ([2]; Table 6, 5 mg/kg intragastric): 56.3 ± 9.1 s
- latent period day 3 ([2]; Table 6, 5 mg/kg intragastric): 52.5 ± 10.4 s
- latent period day 4 ([2]; Table 6, 5 mg/kg intragastric): 46.4 ± 16.6 s
- latent period day 5 ([2]; Table 6, 5 mg/kg intragastric): 43.7 ± 11.8 s
- times of crossing platform ([2]; Table 6, 5 mg/kg intragastric): 2.00 ± 1.41
- latent period day 1 ([2]; Table 6, 10 mg/kg intragastric): 59.9 ± 0.3 s
- latent period day 2 ([2]; Table 6, 10 mg/kg intragastric): 58.1 ± 6.2 s
- latent period day 3 ([2]; Table 6, 10 mg/kg intragastric): 51.1 ± 12.0 s
- latent period day 4 ([2]; Table 6, 10 mg/kg intragastric): 42.1 ± 15.5 s
- latent period day 5 ([2]; Table 6, 10 mg/kg intragastric): 39.3 ± 16.7 s
- times of crossing platform ([2]; Table 6, 10 mg/kg intragastric): 2.60 ± 1.96

Structure (SMILES): O=C1c2cc3c(cc2C(=O)N1CCC1CCN(Cc2cccc(F)c2)CC1)OCO3 [Compound I-3, 6-[2-[1-[(3-fluorophenyl)methyl]-4-piperidyl]ethyl]-[1,3]dioxolo[4,5-f]isoindole-5,7-dione]
- potency on acetylcholinesterase compared with positive control drug donepezil hydrochloride [1]: slightly lower potency than the positive control drug
- IC50 [1, 5]: 269 nM
- effect on learning and memory disorder of mice induced by scopolamine [2]: decreases significantly
- latent period day 1 ([2]; Table 3, 5 mg/kg intragastric): 56.5 ± 8.5 s
- latent period day 2 ([2]; Table 3, 5 mg/kg intragastric): 56.5 ± 8.6 s
- latent period day 3 ([2]; Table 3, 5 mg/kg intragastric): 60 ± 0 s
- latent period day 4 ([2]; Table 3, 5 mg/kg intragastric): 43.9 ± 15.4 s
- latent period day 5 ([2]; Table 3, 5 mg/kg intragastric): 34.0 ± 19.5 s
- times of crossing platform ([2]; Table 3, 5 mg/kg intragastric): 1.9 ± 1.5
- latent period day 1 ([2]; Table 3, 10 mg/kg intragastric): 59.3 ± 2.6 s
- latent period day 2 ([2]; Table 3, 10 mg/kg intragastric): 56.3 ± 9.7 s
- latent period day 3 ([2]; Table 3, 10 mg/kg intragastric): 55.5 ± 9.5 s
- latent period day 4 ([2]; Table 3, 10 mg/kg intragastric): 49.4 ± 15.7 s
- latent period day 5 ([2]; Table 3, 10 mg/kg intragastric): 45.0 ± 15.0 s
- times of crossing platform ([2]; Table 3, 10 mg/kg intragastric): 1.1 ± 1.1

Structure (SMILES): O=C1c2cc3c(cc2C2(CC2)N1CCC1CCN(Cc2ccccc2F)CC1)OCO3 [Compound I-18, 6-[2-[1-[(2-fluorophenyl)methyl]-4-piperidyl]ethyl]spiro[[1,3]dioxolo[4,5-f]isoindole-7,1′-cyclopropane]-5-one]
- potency on acetylcholinesterase compared with positive control drug donepezil hydrochloride [1]: slightly lower potency than the positive control drug
- IC50 [1, 5]: 154 nM
- effect on learning and memory disorder of mice induced by scopolamine [2]: can improve the learning and memory disorder of the animals induced by scopolamine
- latent period day 1 ([2]; Table 2, 5 mg/kg intragastric): 60 ± 0 s
- latent period day 2 ([2]; Table 2, 5 mg/kg intragastric): 60 ± 0 s
- latent period day 3 ([2]; Table 2, 5 mg/kg intragastric): 53.1 ± 10.4 s
- latent period day 4 ([2]; Table 2, 5 mg/kg intragastric): 56.9 ± 8.2 s
- latent period day 5 ([2]; Table 2, 5 mg/kg intragastric): 56.8 ± 8.6 s
- times of crossing platform ([2]; Table 2, 5 mg/kg intragastric): 0.5 ± 0.6
- latent period day 1 ([2]; Table 3, 5 mg/kg intragastric): 55.0 ± 10.3 s
- latent period day 2 ([2]; Table 3, 5 mg/kg intragastric): 55.9 ± 9.0 s
- latent period day 3 ([2]; Table 3, 5 mg/kg intragastric): 60 ± 0 s
- latent period day 4 ([2]; Table 3, 5 mg/kg intragastric): 51.8 ± 15.6 s
- latent period day 5 ([2]; Table 3, 5 mg/kg intragastric): 35.6 ± 15.4 s
- times of crossing platform ([2]; Table 3, 5 mg/kg intragastric): 1.5 ± 1.7
- latent period day 1 ([2]; Table 3, 10 mg/kg intragastric): 56.0 ± 9.9 s
- latent period day 2 ([2]; Table 3, 10 mg/kg intragastric): 52.4 ± 12.4 s
- latent period day 3 ([2]; Table 3, 10 mg/kg intragastric): 60 ± 0 s
- latent period day 4 ([2]; Table 3, 10 mg/kg intragastric): 48.8 ± 15.4 s
- latent period day 5 ([2]; Table 3, 10 mg/kg intragastric): 49.2 ± 15.9 s
- times of crossing platform ([2]; Table 3, 10 mg/kg intragastric): 1.5 ± 1.2

Structure (SMILES): O=C1c2cc3c(cc2C2(CC2)N1CCC1CCN(Cc2cccc(F)c2)CC1)OCO3 [Compound I-19, 6-[2-[1-[(3-fluorophenyl)methyl]-4-piperidyl]ethyl]spiro[[1,3]dioxolo[4,5-f]isoindole-7,1′-cyclopropane]-5-one]
- potency on acetylcholinesterase compared with positive control drug donepezil hydrochloride [1]: even lower
- IC50 [1, 5]: 376 nM
- effect on learning and memory disorder of mice induced by scopolamine [2]: can improve the learning and memory disorder of the animals induced by scopolamine
- latent period day 1 ([2]; Table 2, 5 mg/kg intragastric): 60 ± 0 s
- latent period day 2 ([2]; Table 2, 5 mg/kg intragastric): 60 ± 0 s
- latent period day 3 ([2]; Table 2, 5 mg/kg intragastric): 55.2 ± 11.8 s
- latent period day 4 ([2]; Table 2, 5 mg/kg intragastric): 57.3 ± 10.4 s
- latent period day 5 ([2]; Table 2, 5 mg/kg intragastric): 53.9 ± 12.4 s
- times of crossing platform ([2]; Table 2, 5 mg/kg intragastric): 0.8 ± 1.4

Structure (SMILES): COc1cc2c(cc1OC)C(=O)C(CC1CCN(Cc3ccccc3)CC1)C2 (stereo not drawn) [DPH, donepezil hydrochloride, reference compound]
- The period of reaching the platform for the first time (latent period) ([3]; 3 mg/Kg intragastric, 8 days): 23.94 ± 4.84
- times of crossing platform ([3]; 3 mg/Kg intragastric, 8 days): 3.22 ± 0.55
- effect on period required for reaching the platform for the first time (latent period) [3, 6]: significantly shorten the period required for reaching the platform for the first time
- effect on times of crossing the platform [3, 6]: significantly increases the times of crossing the platform

Structure (SMILES): CC1(C)c2cc3c(cc2C(=O)N1CCC1CCN(Cc2ccccc2)CC1)OCO3 [Compound I-13, 6-[2-(1-benzyl-4-piperidyl)ethyl]-7,7-dimethyl-[1,3]dioxolo[4,5-f]isoindol-5-one]
- IC50 [1, 4]: > 2000 nM
- potency on acetylcholinesterase compared with positive control drug donepezil hydrochloride [1]: relative low activity

Structure (SMILES): O=C1c2cc3c(cc2C2(CC2)N1CCC1CCN(Cc2ccncc2)CC1)OCO3 [Compound I-31, 6-[2-[1-(4-pyridylmethyl)-4-piperidyl]ethyl]spiro[[1,3]dioxolo[4,5-f]isoindole-7,1′-cyclopropane]-5-one]
- potency on acetylcholinesterase compared with positive control drug donepezil hydrochloride [1]: relative low activity
- IC50 [1, 7]: > 2000 nM

Structure (SMILES): O=C1c2cc3c(cc2CN1CCC1CCN(Cc2ccccc2F)CC1)OCO3 [Compound I-6, 6-[2-[1-[(2-fluorophenyl)methyl]-4-piperidyl]ethyl]-5H-[1,3]dioxolo[4,5-f]isoindol-7-one]
- potency on acetylcholinesterase compared with positive control drug donepezil hydrochloride [1]: even lower
- IC50 [1, 5]: 483 nM

Structure (SMILES): COc1cccc(CN2CCC(CCN3C(=O)c4cc5c(cc4C34CC4)OCO5)CC2)c1 [Compound I-27, 6-[2-[1-[(3-methoxyphenyl)methyl]-4-piperidyl]ethyl]spiro[[1, 3]dioxolo[4,5-f]isoindole-7,1′-cyclopropane]-5-one]
- potency on acetylcholinesterase compared with positive control drug donepezil hydrochloride [1]: relative low activity
- IC50 [1, 5]: > 2000 nM

Structure (SMILES): COc1ccc(CN2CCC(CCN3C(=O)c4cc5c(cc4C34CC4)OCO5)CC2)cc1 [Compound I-28, 6-[2-[1-[(4-methoxyphenyl)methyl]-4-piperidyl]ethyl]spiro[[1, 3]dioxolo[4,5-f]isoindole-7,1′-cyclopropane]-5-one]
- potency on acetylcholinesterase compared with positive control drug donepezil hydrochloride [1]: relative low activity
- IC50 [1, 7]: > 2000 nM

Structure (SMILES): O=C1c2cc3c(cc2C2(CC2)N1CCC1CCN(Cc2ccc[nH]2)CC1)OCO3 [Compound I-39, 6-[2-[1-(1H-pyrrol-2-ylmethyl)-4-piperidyl]ethyl]spiro[[1,3]dioxolo[4,5-f]isoindole-7,1′-cyclopropane]-5-one]
- potency on acetylcholinesterase compared with positive control drug donepezil hydrochloride [1]: relative low activity
- IC50 [1, 7]: > 2000 nM

Structure (SMILES): COc1ccccc1CN1CCC(CCN2C(=O)c3cc4c(cc3C23CC3)OCO4)CC1 [Compound I-26, 6-[2-[1-[(2-methoxyphenyl)methyl]-4-piperidyl]ethyl]spiro[[1, 3]dioxolo[4,5-f]isoindole-7,1′-cyclopropane]-5-one]
- potency on acetylcholinesterase compared with positive control drug donepezil hydrochloride [1]: relative low activity
- IC50 [1, 5]: > 2000 nM

Structure (SMILES): O=C1c2cc3c(cc2C2(CC2)N1CCC1CCN(Cc2ccc(F)cc2)CC1)OCO3 [Compound I-20, 6-[2-[1-[(4-fluorophenyl)methyl]-4-piperidyl]ethyl]spiro[[1,3]dioxolo[4,5-f]isoindole-7,1′-cyclopropane]-5-one]
- potency on acetylcholinesterase compared with positive control drug donepezil hydrochloride [1]: even lower
- IC50 [1, 5]: 706 nM

Structure (SMILES): O=C1c2cc3c(cc2C2(CC2)N1CCC1CCN(Cc2cccnn2)CC1)OCO3 [Compound I-38, 6-[2-[1-(pyridazin-3-ylmethyl)-4-piperidyl]ethyl]spiro[[1,3]dioxolo[4,5-f]isoindole-7,1′-cyclopropane]-5-one]
- potency on acetylcholinesterase compared with positive control drug donepezil hydrochloride [1]: relative low activity
- IC50 [1, 7]: > 2000 nM

Structure (SMILES): O=C1c2cc3c(cc2C2(CC2)N1CCC1CCN(Cc2ccccc2Cl)CC1)OCO3 [Compound I-21, 6-[2-[1-[(2-chlorophenyl)methyl]-4-piperidyl]ethyl]spiro[[1,3]dioxolo[4,5-f]isoindole-7,1′-cyclopropane]-5-one]
- potency on acetylcholinesterase compared with positive control drug donepezil hydrochloride [1]: even lower
- IC50 [1, 5]: 653 nM
